Entries after “also recorded” stand apart in the source; their conditions may differ. Like-named read-outs stand apart in the source and are kept apart here.
Experiments:
[1] = tested on: GIST-T1 cell line; details: 16 h drug pre-treatment; for Percentage of TMRE positive cells, dose-response curve versus control: titration of combination A, 3 hours
[2] = tested on: GIST-T1/670 cell line; assay: RTA with fluorescence microscopy (TMRE); assay type: cell-based; details: 16 h drug pre-treatment; titration of combination A, 3 hours
[3] = tested on: GIST-T1/670 cell line; assay: Real-time tracking of apoptosis (RTA) with flow cytometry; assay type: cell-based; details: 16 h drug pre-treatment; titration of combination A, 3 hours
[4] = tested on: GIST-T1/670 cell line; details: 16 h drug pre-treatment (imatinib 1000 nM, gefitinib 1000 nM); BIM peptide titration with digitonin
[5] = tested on: GIST-T1 cells; details: 16 h drug pre-treatment; combination A gradient generated by the device
[6] = tested on: GIST-T1 cell line; details: 16 h drug pre-treatment (imatinib 1000 nM, gefitinib 1000 nM); BIM peptide titration with digitonin
[7] = tested on: GIST-T1 cell line; assay: Real-time tracking of apoptosis (RTA) with flow cytometry; assay type: cell-based; details: 16 h drug pre-treatment; titration of combination A, 3 hours

Cc1ccc(NC(=O)c2ccc(CN3CCN(C)CC3)cc2)cc1Nc1nccc(-c2cccnc2)n1 [imatinib]
Δ% priming ([1]; microscopy RTA with combination A): a clear increase in apoptotic priming; also recorded: increase of apoptotic priming
Percentage of TMRE positive cells, dose-response curve versus control [1]: caused a shift of the curve identifying an increase in apoptotic priming; also recorded: induction of apoptotic priming
Percentage of TMRE positive cells, dose-response curve versus control [2]: produced an unaltered curve

COc1cc2ncnc(Nc3ccc(F)c(Cl)c3)c2cc1OCCCN1CCOCC1 [gefitinib]
Percentage of cytochrome c retained, dose-response curve versus control [3]: produced the same curve as the control conditions
Percentage of cytochrome c retained, dose-response curve versus control [4]: the same dose-response curve
Percentage of TMRE positive cells, dose-response curve versus control [5]: the same response
Percentage of TMRE positive cells, dose-response curve versus control [1]: this was not observed
Percentage of cytochrome c retained, dose-response curve versus control [6]: showed a similar profile as the control
Percentage of cytochrome c retained, dose-response curve versus control [7]: produced the same curve as the control conditions
Percentage of TMRE positive cells, dose-response curve versus control [2]: produced an unaltered curve
